Where a name gives a salt, the structure may show the parent alone. Read-outs that look alike come from different tables or passages of the source. One block for each compound: values may come before it.
Assays:
[1] = molecular target: T1, LSD1 (Homo sapiens, UniProt O60341); settings: Table 18; cited from earlier work
[2] = molecular target: T2, MAO A (Homo sapiens, UniProt P21397); settings: Table 18, MAO A (first value or marked A); read-out: Select MAOs A and B; cited from earlier work
T2 sequence (P21397 1-527): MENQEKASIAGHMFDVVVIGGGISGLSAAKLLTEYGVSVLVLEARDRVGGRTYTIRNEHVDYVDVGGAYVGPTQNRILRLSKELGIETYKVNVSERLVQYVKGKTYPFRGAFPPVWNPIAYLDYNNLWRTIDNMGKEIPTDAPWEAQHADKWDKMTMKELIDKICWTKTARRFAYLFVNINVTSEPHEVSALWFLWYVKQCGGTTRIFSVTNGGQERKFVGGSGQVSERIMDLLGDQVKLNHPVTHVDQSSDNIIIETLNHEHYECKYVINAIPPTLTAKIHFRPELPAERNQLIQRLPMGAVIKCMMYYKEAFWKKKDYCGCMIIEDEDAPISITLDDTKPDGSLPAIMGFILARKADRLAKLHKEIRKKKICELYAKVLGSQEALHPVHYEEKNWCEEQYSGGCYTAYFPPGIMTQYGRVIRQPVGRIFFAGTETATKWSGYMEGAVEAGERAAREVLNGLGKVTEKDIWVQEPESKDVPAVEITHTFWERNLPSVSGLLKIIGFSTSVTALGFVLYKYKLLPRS

[3] = system: HDAC; settings: Mechanism HDAC Inhib 1, 2, 3, 8; cited from earlier work
[4] = Perilymph Conc. listed for agents (Tables 14-25)
[5] = system: Lgr5+ cells; assay: Lgr5+ Assay (Lgr5+ cell assay in vitro); assay type: cell-based
[6] = molecular target: GSK-3 alpha (Homo sapiens, UniProt P49840); settings: cited from earlier work
Chain of GSK-3 alpha (P49840 whole entry): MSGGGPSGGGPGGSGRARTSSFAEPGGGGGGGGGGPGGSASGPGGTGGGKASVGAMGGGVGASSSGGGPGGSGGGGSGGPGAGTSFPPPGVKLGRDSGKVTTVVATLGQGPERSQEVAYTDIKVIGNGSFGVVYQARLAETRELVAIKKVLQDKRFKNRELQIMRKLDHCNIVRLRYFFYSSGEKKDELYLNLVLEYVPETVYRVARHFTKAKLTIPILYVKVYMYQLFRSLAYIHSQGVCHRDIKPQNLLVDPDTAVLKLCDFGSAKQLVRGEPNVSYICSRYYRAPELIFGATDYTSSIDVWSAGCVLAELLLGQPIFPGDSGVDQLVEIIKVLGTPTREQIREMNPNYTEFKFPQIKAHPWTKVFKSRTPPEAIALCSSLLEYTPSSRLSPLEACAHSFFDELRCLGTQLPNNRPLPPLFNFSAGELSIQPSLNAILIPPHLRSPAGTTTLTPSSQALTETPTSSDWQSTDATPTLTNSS

[7] = system: KDM; settings: cited from earlier work
[8] = system: KDM; settings: Table 21; cited from earlier work
[9] = molecular target: T3, DOT1L (Homo sapiens, UniProt Q8TEK3); settings: Table 20; read-out: pKi or IC50 (converted); cited from earlier work
T3 sequence (Q8TEK3 whole entry, species assumed): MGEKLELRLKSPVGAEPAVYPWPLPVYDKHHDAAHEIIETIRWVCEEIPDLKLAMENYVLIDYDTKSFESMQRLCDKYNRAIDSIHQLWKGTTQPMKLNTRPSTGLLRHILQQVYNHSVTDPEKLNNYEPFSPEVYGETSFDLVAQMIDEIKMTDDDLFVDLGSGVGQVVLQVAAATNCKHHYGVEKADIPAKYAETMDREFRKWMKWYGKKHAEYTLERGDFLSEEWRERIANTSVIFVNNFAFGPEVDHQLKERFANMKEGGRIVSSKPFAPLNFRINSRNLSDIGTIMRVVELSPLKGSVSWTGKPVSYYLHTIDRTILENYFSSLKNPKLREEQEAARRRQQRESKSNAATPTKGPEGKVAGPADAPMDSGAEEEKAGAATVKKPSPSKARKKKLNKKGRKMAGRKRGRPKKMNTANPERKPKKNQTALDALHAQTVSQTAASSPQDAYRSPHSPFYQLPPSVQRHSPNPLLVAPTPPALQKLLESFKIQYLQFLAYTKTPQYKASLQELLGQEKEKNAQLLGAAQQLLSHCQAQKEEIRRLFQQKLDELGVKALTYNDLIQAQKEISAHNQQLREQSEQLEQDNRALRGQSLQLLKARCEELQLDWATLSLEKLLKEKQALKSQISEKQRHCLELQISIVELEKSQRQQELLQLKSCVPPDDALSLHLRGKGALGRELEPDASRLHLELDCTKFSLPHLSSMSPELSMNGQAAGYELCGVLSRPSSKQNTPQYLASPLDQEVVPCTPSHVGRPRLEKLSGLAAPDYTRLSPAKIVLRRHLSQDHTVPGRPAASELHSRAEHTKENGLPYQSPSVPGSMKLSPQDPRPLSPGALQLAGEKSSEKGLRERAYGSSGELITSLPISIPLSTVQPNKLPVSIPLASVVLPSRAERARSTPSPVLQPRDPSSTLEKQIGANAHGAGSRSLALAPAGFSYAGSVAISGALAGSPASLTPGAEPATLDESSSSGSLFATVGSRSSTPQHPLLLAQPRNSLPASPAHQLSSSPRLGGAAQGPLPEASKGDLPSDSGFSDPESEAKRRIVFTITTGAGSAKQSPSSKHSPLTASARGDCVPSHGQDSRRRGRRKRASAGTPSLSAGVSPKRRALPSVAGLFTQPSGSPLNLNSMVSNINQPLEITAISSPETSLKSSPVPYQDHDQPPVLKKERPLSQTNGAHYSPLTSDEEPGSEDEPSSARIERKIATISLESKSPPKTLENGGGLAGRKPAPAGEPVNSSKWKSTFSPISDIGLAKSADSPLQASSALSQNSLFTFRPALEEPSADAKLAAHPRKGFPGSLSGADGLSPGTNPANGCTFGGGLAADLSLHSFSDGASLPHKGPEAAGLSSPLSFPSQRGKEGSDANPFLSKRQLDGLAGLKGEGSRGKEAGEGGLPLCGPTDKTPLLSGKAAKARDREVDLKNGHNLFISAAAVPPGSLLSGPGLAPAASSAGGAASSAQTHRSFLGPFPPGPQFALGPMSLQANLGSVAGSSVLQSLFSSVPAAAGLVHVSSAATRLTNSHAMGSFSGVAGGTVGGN

[10] = molecular target: T4, MAO B (Homo sapiens, UniProt P27338); settings: Table 18, MAO B (second value or marked B); read-out: Select MAOs A and B; cited from earlier work
T4 sequence (P27338 1-520): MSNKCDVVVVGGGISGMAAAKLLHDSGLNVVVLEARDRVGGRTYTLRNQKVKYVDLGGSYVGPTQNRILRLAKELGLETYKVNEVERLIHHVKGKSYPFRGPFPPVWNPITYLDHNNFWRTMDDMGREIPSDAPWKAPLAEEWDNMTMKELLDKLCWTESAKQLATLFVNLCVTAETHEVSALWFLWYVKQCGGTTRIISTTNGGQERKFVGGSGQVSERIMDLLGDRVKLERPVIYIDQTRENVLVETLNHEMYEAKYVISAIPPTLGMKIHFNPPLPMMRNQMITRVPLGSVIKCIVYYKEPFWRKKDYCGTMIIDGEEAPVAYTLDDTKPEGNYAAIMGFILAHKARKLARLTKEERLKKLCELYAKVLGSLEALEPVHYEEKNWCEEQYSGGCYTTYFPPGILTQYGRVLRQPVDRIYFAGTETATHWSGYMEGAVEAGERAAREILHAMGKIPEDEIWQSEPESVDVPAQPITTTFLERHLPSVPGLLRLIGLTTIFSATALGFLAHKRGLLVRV

[11] = molecular target: T5, EZH2 (Homo sapiens, UniProt Q15910); settings: Table 19, EZH2; read-out: pKi or IC50 (converted); cited from earlier work
T5 sequence (Q15910 whole entry, species assumed): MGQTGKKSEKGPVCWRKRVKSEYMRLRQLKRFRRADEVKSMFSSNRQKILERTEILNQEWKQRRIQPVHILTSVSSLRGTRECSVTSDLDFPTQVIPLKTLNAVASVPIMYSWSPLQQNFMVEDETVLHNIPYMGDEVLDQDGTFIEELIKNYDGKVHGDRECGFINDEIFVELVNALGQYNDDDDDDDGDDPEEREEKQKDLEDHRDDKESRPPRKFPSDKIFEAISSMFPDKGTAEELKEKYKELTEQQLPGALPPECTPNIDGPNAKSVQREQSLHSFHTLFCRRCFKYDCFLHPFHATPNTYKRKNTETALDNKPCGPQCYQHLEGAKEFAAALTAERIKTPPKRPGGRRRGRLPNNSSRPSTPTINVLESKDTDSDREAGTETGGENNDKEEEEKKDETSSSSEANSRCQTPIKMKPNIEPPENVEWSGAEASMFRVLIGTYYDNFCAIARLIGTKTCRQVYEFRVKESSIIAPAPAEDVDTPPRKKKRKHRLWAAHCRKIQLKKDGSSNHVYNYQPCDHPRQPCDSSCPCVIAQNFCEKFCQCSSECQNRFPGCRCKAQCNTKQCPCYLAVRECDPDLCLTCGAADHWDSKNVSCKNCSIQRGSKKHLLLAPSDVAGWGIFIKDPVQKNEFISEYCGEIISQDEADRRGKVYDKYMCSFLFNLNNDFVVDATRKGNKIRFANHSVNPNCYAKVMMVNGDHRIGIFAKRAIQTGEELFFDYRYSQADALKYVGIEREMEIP
T5 sequence (O75530 whole entry partner, species assumed): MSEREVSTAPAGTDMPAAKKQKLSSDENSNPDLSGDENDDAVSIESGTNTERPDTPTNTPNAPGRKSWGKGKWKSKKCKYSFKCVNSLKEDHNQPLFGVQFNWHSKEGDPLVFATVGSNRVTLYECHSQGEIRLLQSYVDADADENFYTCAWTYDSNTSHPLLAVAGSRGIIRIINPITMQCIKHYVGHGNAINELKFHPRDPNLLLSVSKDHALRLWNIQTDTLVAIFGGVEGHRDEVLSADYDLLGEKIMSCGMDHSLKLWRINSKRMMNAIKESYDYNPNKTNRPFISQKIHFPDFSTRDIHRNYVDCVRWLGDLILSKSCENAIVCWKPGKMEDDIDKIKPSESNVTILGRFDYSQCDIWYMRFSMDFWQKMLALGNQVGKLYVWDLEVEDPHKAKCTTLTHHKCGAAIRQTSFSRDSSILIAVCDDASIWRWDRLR
T5 sequence (Q15022 whole entry partner, species assumed): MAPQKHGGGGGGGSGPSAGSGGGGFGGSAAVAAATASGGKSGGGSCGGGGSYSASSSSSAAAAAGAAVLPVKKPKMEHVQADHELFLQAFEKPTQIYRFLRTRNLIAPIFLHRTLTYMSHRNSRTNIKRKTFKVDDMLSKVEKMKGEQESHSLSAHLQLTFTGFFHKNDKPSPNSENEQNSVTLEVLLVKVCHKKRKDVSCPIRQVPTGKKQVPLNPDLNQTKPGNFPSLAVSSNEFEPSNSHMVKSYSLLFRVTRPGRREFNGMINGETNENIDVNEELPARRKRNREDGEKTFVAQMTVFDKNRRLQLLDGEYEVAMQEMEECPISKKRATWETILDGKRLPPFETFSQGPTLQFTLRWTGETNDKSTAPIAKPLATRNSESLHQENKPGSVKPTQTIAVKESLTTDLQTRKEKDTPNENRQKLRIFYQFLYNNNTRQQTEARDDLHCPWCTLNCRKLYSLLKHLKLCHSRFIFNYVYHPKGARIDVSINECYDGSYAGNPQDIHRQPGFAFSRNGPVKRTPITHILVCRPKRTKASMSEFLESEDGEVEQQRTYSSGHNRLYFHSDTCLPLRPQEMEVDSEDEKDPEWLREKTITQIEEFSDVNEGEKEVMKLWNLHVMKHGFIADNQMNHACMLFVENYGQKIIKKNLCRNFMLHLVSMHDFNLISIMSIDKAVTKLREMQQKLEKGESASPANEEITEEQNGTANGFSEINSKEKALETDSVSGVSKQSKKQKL

[12] = molecular target: T5, EZH2; settings: Table 19; cited from earlier work
[13] = Human In Vivo Conc listed for agents
[14] = molecular target: T1, LSD1; settings: Table 18, LSD1; read-out: pKi or IC50 (converted); cited from earlier work
[15] = cited from earlier work
[16] = molecular target: EZH-1 (Homo sapiens, UniProt Q92800); settings: Table 19; read-out: Select vs EZH-1; cited from earlier work
Chain of EZH-1 (Q92800 whole entry, species assumed): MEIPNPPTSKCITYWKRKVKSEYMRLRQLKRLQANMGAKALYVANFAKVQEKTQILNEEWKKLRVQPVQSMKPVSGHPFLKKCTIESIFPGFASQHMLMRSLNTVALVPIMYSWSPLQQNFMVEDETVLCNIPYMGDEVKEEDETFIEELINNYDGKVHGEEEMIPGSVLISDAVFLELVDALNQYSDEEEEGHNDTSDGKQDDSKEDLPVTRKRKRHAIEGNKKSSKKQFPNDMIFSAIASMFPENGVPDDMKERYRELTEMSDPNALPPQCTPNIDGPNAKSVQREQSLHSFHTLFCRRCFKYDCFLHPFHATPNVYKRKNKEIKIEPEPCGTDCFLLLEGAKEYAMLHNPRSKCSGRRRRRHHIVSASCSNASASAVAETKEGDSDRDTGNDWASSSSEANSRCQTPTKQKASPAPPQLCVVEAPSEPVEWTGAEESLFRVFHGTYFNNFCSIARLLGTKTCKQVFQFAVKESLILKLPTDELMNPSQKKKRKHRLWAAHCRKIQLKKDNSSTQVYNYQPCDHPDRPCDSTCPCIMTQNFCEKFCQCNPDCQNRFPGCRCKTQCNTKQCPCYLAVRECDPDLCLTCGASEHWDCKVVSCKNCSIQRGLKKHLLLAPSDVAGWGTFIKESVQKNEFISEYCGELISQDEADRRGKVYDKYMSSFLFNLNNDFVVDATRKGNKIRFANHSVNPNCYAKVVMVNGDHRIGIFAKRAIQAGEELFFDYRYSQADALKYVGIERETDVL
Chain of EZH-1 (O75530 whole entry partner, species assumed): as the sequence (O75530 whole entry partner, species assumed) above
Chain of EZH-1 (Q15022 whole entry partner, species assumed): as the sequence (Q15022 whole entry partner, species assumed) above

[17] = molecular target: T3, DOT1L; settings: Table 20; cited from earlier work
[18] = system: TAZ; settings: Table 22; cited from earlier work
[19] = HDAC inhibitor table, upper end of the wrapped range 100 uM-4 mM, no test described
[20] = HDAC inhibitor table, upper end of the wrapped range 100 uM-4 mM
[21] = Table 14, listed concentration, no test described
[22] = Table 21, KDM 4, read-out: Select KDM 4
[23] = Table 20, listed concentration, no test described
[24] = Table 22, listed concentration, no test described

Compound: N[C@H]1CC[C@H](N[C@@H]2C[C@H]2c2ccccc2)CC1 (relative stereo) [ORY-1001]
Literat. Cell [1]: 0.5 to 3 nM | IC50 [2]: > 100000 nM

Perilymph Conc [4, 19]: ≤ 4000 µM
Compound: C#CCC(CCCCCC)C(=O)O (centres unmarked) [2-hexyl-4-pentynoic acid]
HDAC Potenc [3]: 13 µM | Lgr5+ Assay [5, 20]: ≤ 4000 µM

Perilymph Conc [4, 21]: 1 to 5 µM
Compound: N#Cc1ccc2[nH]c(O)c(-c3ccc(CN4CCOCC4)cn3)c2c1 [AZD 1080]
GSK-3 alpha [6]: 6.9 nM

Compound: CC(C)c1c(-c2ccccc2)[nH]c2c(C#N)cnn2c1=O [CPI-455]
IC50 [7, 22]: 41 nM | Lit Cell [8]: 0.09 µM

Compound: Cc1ncccc1-c1c(Cl)sc2ccc(NC(=O)NCC(=O)NCCCN(C)[C@@H]3CCCN(c4ncnc5[nH]ccc45)C3)cc12 [Compound 7]
IC50 [9]: < 1 nM

Compound: CNc1ccnc(Nc2ccc3cc(C)n(-c4ccccc4Oc4cnc5c(c4)ncn5C)c3c2)n1 [Compound 13]
IC50 [9]: 0.4 nM

Compound: Cn1cc(C(=O)Nc2ccc([C@@H]3C[C@H]3NCC3CC3)cc2)cn1 [Compound T-3775440]
IC50 [2]: 110000 nM | IC50 [10]: 17000 nM

Compound: N#Cc1c2c(c3nncn3c1NCc1ccco1)CN(Cc1ccccc1)CC2 [EED162]
IC50 [11]: 30 nM | Lit Cell Poten [12]: 80 nM

Perilymph Conc [4, 23]: 0.6 to 45 µM | Human In Vivo Conc ([13]; Table 20): 0.1 to 45 µM
Compound: CC(C)N(CCCNC(=O)Nc1ccc(C(C)(C)C)cc1)C[C@H]1O[C@@H](n2ccc3c(N)ncnc32)[C@H](O)[C@@H]1O [EPZ004777]
Lgr5+ Assay ([5]; Table 20): 0.6 to 45 µM

Compound: Cc1cc(C)c(CNC(=O)c2cc(-c3ccc(N4CCN(C)CC4)nc3)cc3c2cnn3C(C)C)c(=O)[nH]1 [GSK926]
IC50 [11]: 7.9 nM | Lit Cell Poten [12]: 324 nM

Perilymph Conc [4, 21]: 0.2 to 1 µM
Compound: Cc1ccc(C(=O)Nc2c[nH]nc2C(=O)NCCCOC(C)C)cn1 [GSK XXII]
GSK-3 alpha [6]: 2.3 nM | Lgr5+ Assay ([5]; Table 14): 0.2 to 1 µM

Compound: Cc1ccc(-c2ncc(OC[C@@H]3CCNC3)cc2-c2ccc(C#N)cc2)cc1 [GSK-354]
Literat. Cell [1]: 1300 nM | IC50 [14]: 29 to 80 nM | IC50 [10]: 19000 nM

Compound: O=C(O)CCNc1cc(N2CCc3ccccc3CC2)nc(-c2ccccn2)n1 [GSK-J1]
Lit Cell [8]: 50 µM

Perilymph Conc [4, 19]: ≤ 4000 µM
Compound: O=C(O)CCCc1ccccc1 [Na phenylbutyrate]
HDAC Potenc [3]: 9 to 16 µM | Lgr5+ Assay [5, 20]: ≤ 4000 µM

Compound: COc1cc(C)[nH]c(=O)c1CN1CCc2c(Cl)cc([C@H](OC)C3COC3)c(Cl)c2C1=O [PF-06821497]
Human In Vivo Conc ([15]; Table 19): 0.005 to 0.05 µM | Perilymph Conc ([4]; Table 19): 0.001 to 0.1 µM | IC50 [11]: < 1 nM | Lit Cell Poten [12]: 4 to 6 nM | IC50 [16]: 70 nM

Cmax ([13]; human, plasma, Table 18, value in brackets, converted): 73 to 440 nM
Compound: NNCCc1ccccc1 [Phenelzine sulfate]
Literat. Cell [1]: 900 nM

Perilymph Conc [4, 23]: 0.1 to 10 µM | Human In Vivo Conc ([13]; Table 20): (1-10 uM
Compound: CC(C)N(C[C@H]1O[C@@H](n2cnc3c(N)ncnc32)[C@H](O)[C@@H]1O)[C@H]1C[C@@H](CCc2nc3cc(C(C)(C)C)ccc3[nH]2)C1 [Pinometostat (EPZ-5676)]
Lit Cell [17]: 2.7 nM

Perilymph Conc [4, 23]: 0.6 to 5 µM | Human In Vivo Conc ([13]; Table 20): 0.1 to 5 µM
Compound: CC(C)N(CCCNC(=O)Nc1ccc(C(C)(C)C)cc1)C[C@H]1O[C@@H](n2cc(Br)c3c(N)ncnc32)[C@H](O)[C@@H]1O [SGC0946]
Lit Cell [17]: 10 nM

Perilymph Conc ([4]; Table 21): 0.12 to 10 µM
Compound: O=C(O)CCN(O)C(=O)CCCCCCCCC1CC1 [TC-E5002]
Human In Vivo Conc ([15]; Table 21): 0.12 to 10 µM | Lgr5+ Assay ([5]; Table 21): 0.12 to 10 µM | IC50 [7, 22]: 83000 nM | IC50 ([7]; Table 21, KDM 5, read-out: Select KDM 5): 55000 nM | IC50 ([7]; Table 21, KDM 6, read-out: Select KDM 6): > 100000 nM | Lit Cell [8]: 1640 µM

Perilymph Conc [4, 24]: 10 to 100 µM
Compound: CCCCc1nc2cc(-c3cccnc3)c(C)nc2n1Cc1ccc(-c2ccccc2-c2nn[nH]n2)cc1 [TM-25659]
Lgr5+ Assay ([5]; Table 22): 10 to 100 µM | Lit Cell [18]: 10 to 100 µM

Perilymph Conc [4, 24]: 1 to 10 µM
Compound: C=CCNc1nc(N)c(C(=O)c2ccc(F)s2)s1 [TT10]
Lgr5+ Assay ([5]; Table 22): 1 to 10 µM | Lit Cell [18]: 1 µM

Perilymph Conc ([4]; Table 19): 0.37 to 1.1 µM | Human In Vivo Conc ([13]; Table 19, value in brackets, converted): (200-1600 nM)
Compound: CCN(c1cc(-c2ccc(CN3CCOCC3)cc2)cc(C(=O)NCc2c(C)cc(C)[nH]c2=O)c1C)C1CCOCC1 [Tazemetostat]
Human In Vivo Conc ([15]; Table 19): 100 to 800 ng/mL

Compound: CCCc1cc(C)[nH]c(=O)c1CNC(=O)c1cc(-c2ccc(N3CCN(C(C)C)CC3)nc2)cc2c1cnn2C(C)C [UNCI 999]
IC50 [11]: 10 nM | Lit Cell Poten [12]: 124 nM | Lgr5+ Assay ([5]; Table 19, result in words): Activity

Perilymph Conc ([4]; Table 19): 1 to 10 µM
Compound: CPI-169
Human In Vivo Conc ([15]; Table 19): 1 to 10 µM | IC50 [16]: 6 nM

Source: US20220192984A1, “PHARMACEUTICAL COMPOSITIONS COMPRISING OTIC THERAPEUTIC AGENTS AND RELATED METHODS” (Frequency Therapeutics, Inc., priority 2018, published 2022)
